These are literature values, as cited in patent US5585357A, “Heteroaryloxymethyl ketones as interleukin-1βconverting enzyme inhibitors” (Sanofi Winthrop Inc., priority 1996, dated 1996).

For data set [1] the following is noted: rat, oral administration.
For data set [2] the following is noted: animal model of ulcerative colitis.
The conditions of data set [3]: PG-APS model of arthritis in rats.
For data set [4] the following is noted: small open-label human trial, subcutaneous.
In data set [5] the test system is chronic myelogenous leukemia cells. The settings on record: cells removed from leukemia patients.

Regarding `CCOC(=O)C[C@H](NC(=O)[C@H](C)NC(=O)[C@@H](NC(=O)OCc1ccccc1)C(C)C)C(=O)COC(=O)c1c(Cl)cccc1Cl` [SDZ 224-015], the inflammation and pyrexia entry in data set [1] is “Reduction of inflammation and pyrexia”.
Turning to “IL-1ra: naturally occurring IL-1β receptor antagonist”, the “tissue necrosis and number of inflammatory cells in the colon” value in data set [2] is “reduced tissue necrosis and the number of inflammatory cells in the colon”. In data set [3], the joint swelling entry is listed as “supresses joint swelling”. Moreover, in data set [4], the “efficacy in Rheumatoid Arthritis” value is reported as “shows efficacy”. The colony growth entry in data set [5] is recorded as “inhibit colony growth”.
